Laboratory results: patent publication US20070043112A1, “Use of non-opiates for the potentation of opiates” (priority 2003, published 2007)

Experiment: rat tail flick assay (nociceptive reaction latency)
Assay type: in vivo
Conditions: ifenprodil IN 1 mg/rat + morphine IP 6 mg/kg, given 30 min before the test, Student's t test P<0.05 vs morphine group
Experimental: In FIG. 1, results are expressed as mean±sem for 6 experiments, which are (from left to right): vehicle, morphine (6 mg/kg), vehicle, ifenprodil (1 mg/rat), vehicle IN+vehicle IP, and ifenprodil IN (1 mg/rat)+morphine IP (6 mg/kg). • vehicle: 90% saline 10% propylene glycol • vehicle and morphine were given intraperitoneally 30 min. before the test • vehicle and ifenprodil were given intranasally 30 min. before the test • n=10 rats per group • student's T test: * indicates a significant difference in comparison to the vehicle group for P<0.05 • student's T test: † indicates a significant difference in comparison to the morphine group for P<0.05

## CC(C(O)c1ccc(O)cc1)N1CCC(Cc2ccccc2)CC1 (stereo not shown) [ifenprodil]
  potentiation of morphine analgesia (nociceptive reaction latency): potentiates morphine when administered intranasally
